# Data: patent US10517889B2, “Modulators of SMAD7 expression” (Ionis Pharmaceuticals, Inc., priority 2017, dated 2019)
# Strand notation (5' to 3'): a small letter for the sugar, then the base; units joined by * are phosphorothioate-linked, units joined directly phosphodiester-linked; [ ] holds rarer units or linkages, { } end groups; capitals alone tell only the bases. k = constrained ethyl (cEt); [5mC] = 5-methylcytosine; d = 2'-deoxy (DNA)
# System: human SMAD7 mRNA
# Experiment: Antisense inhibition of human SMAD7 mRNA expression in Hep3B cells by 3-10-3 cEt gapmers, 10,000 nM, electroporation (Example 2)
# Assay type: cell-based
# Conditions: Hep3B cells, 10,000 nM antisense oligonucleotide, electroporation, approximately 24 hours, RT-PCR primer probe set RTS5062, relative to untreated control cells
# Description: Antisense oligonucleotides were designed to target human SMAD7 mRNA and were tested for their effects on SMAD7 mRNA expression in vitro. The antisense oligonucleotides were tested in a series of experiments that had similar culture conditions, as described below. ION 771576, described in the studies above and which is a 5-10-5 MOE gapmer, was also included in these assays. Cultured Hep3B cells at a density of 20,000 cells per well were transfected using electroporation with 10,000 nM antisense oligonucleotide. After a treatment period of approximately 24 hours, RNA was isolated from the cells and SMAD7 mRNA levels were measured by quantitative real-time PCR. Primer probe set RTS5062 was used to measure human SMAD7 mRNA levels. SMAD7 mRNA levels were adjusted according to total RNA content, as measured by RIBOGREEN®. Results are presented as percent inhibition of SMAD7 mRNA expression, relative to untreated control cells.
# The newly designed chimeric antisense oligonucleotides in the Tables below were designed as 3-10-3 cEt gapmers. The gapmers are 16 nucleosides in length, wherein the central gap segment comprises often 2′-deoxynucleosides and is flanked by wing segments on the 5′ direction and the 3′ direction comprising three nucleosides each. Each nucleoside in the 5′ wing segment and each nucleoside in the 3′ wing segment has a cEt sugar modification. The internucleoside linkages throughout each gapmer are phosphorothioate (P═S) linkages. All cytosine residues throughout each gapmer are 5-methylcytosines.
# “Start site” indicates the 5′-most nucleoside to which the gapmer is targeted in the human gene sequence. “Stop site” indicates the 3′-most nucleoside to which the gapmer is targeted human gene sequence. […] Some of the oligonucleotides presented were complementary to SMAD7 mRNA sequences RefSeqNo. NM_001190821.1 (designated herein as SEQ ID NO: 3) or RefSeqNo. NM_001190822.1 (designated herein as SEQ ID NO: 4), and are presented in a separate table shown below.
row,Substance,% Inhibition [%]
1,790507 (kA*kA*kG*dA*dA*dG*dT*dT*dG*dG*dG*dA*dA*kT*k[5mC]*kT; antisense) [compound 790507],0
2,790513 (k[5mC]*kA*k[5mC]*d[5mC]*dA*dG*d[5mC]*dT*dG*dA*d[5mC]*dT*d[5mC]*kT*kT*kG; antisense) [compound 790513],10
3,790531 (kT*kG*k[5mC]*dT*dG*dA*dT*dG*dA*dA*d[5mC]*dT*dG*kG*k[5mC]*kG; antisense) [compound 790531],8
4,790533 (kG*kG*k[5mC]*dT*dA*d[5mC]*d[5mC]*dG*dG*d[5mC]*dT*dG*dT*kT*kG*kA; antisense) [compound 790533],16

# Same assay, conditions: Hep3B cells, electroporation with 10,000 nM antisense oligonucleotide, approximately 24 hours, SMAD7 mRNA by RT-PCR (RTS5062), relative to untreated control cells
row,Substance,% Inhibition [%]
1,790493 (kG*kT*kT*dG*dA*dT*d[5mC]*dT*dT*d[5mC]*d[5mC]*d[5mC]*dG*kT*kA*kA; antisense) [compound 790493],0
2,790496 (kG*k[5mC]*kA*dG*dA*dG*dT*d[5mC]*dG*dG*d[5mC]*dT*dA*kA*kG*kG; antisense) [compound 790496],42
3,790497 (kG*kT*kT*d[5mC]*dG*d[5mC]*dA*dG*dA*dG*dT*d[5mC]*dG*kG*k[5mC]*kT; antisense) [compound 790497],23
4,790510 (k[5mC]*k[5mC]*k[5mC]*d[5mC]*dT*dG*dA*dG*dG*dT*dA*dG*dA*kT*k[5mC]*kA; antisense) [compound 790510],33
5,790515 (k[5mC]*kG*kT*d[5mC]*dA*dG*d[5mC]*dT*dG*dG*dA*dT*dG*k[5mC]*k[5mC]*kG; antisense) [compound 790515],26
6,790532 (kG*k[5mC]*kA*d[5mC]*dG*dG*dG*d[5mC]*dA*dG*d[5mC]*dT*dG*k[5mC]*kT*kG; antisense) [compound 790532],0
7,790680 (kG*kG*kT*dG*dA*dG*dT*dA*dA*d[5mC]*d[5mC]*dA*dG*k[5mC]*kT*kG; antisense) [compound 790680],56

# Same assay, conditions: Hep3B cells, electroporation with 10,000 nM antisense oligonucleotide, approximately 24 hours, primer probe set RTS5062, relative to untreated control cells
Substance,% Inhibition [%],% inhibition of SMAD7 mRNA expression [%]
790543 (kT*kG*kA*dA*dA*dA*dG*d[5mC]*dA*dA*dG*d[5mC]*dA*k[5mC]*kT*k[5mC]; antisense) [compound 790543],23,–
790545 (kA*kA*kA*dG*dA*dG*dT*dT*dT*dG*d[5mC]*dA*dT*kG*kA*kA; antisense) [compound 790545],24,–
790613 (k[5mC]*kA*kT*dT*dT*dA*dA*dA*d[5mC]*d[5mC]*dT*dT*dT*kG*kT*kA; antisense) [compound 790613],–,0
790617 (k[5mC]*kT*kA*d[5mC]*dA*dA*dT*dG*d[5mC]*dT*dA*dA*dA*kT*kT*kT; antisense) [compound 790617],0,–
790620 (kT*kA*kA*dT*dA*dA*dA*dT*d[5mC]*dT*d[5mC]*dA*dG*kG*kT*kT; antisense) [compound 790620],30,–
790621 (kG*kT*kG*d[5mC]*dA*dT*d[5mC]*dT*dT*dT*dT*d[5mC]*dT*kT*kT*kA; antisense) [compound 790621],–,0
790623 (kG*k[5mC]*kA*dT*dT*dT*dA*dT*dA*dT*dT*dA*dA*kA*kG*k[5mC]; antisense) [compound 790623],–,0
790626 (kG*kA*kT*dA*dA*d[5mC]*dA*d[5mC]*d[5mC]*d[5mC]*dA*dT*dA*kG*kA*kA; antisense) [compound 790626],–,0
790630 (kG*kG*kA*dA*d[5mC]*dA*dT*dA*dA*dA*d[5mC]*dT*d[5mC]*k[5mC]*kT*kT; antisense) [compound 790630],0,–
790631 (kG*kT*kT*dT*dA*dA*dT*dG*dG*dA*dA*d[5mC]*dA*kT*kA*kA; antisense) [compound 790631],0,–
790655 (k[5mC]*kG*kT*dG*dT*dT*dA*dA*dA*dG*d[5mC]*dT*dG*kA*kG*k[5mC]; antisense) [compound 790655],–,42

# Same assay, conditions: Hep3B cells, electroporation, 10,000 nM, approximately 24 hours; 3-10-3 cEt gapmers targeting SEQ ID NO: 3 and 4
row,Substance,% inhibition of SMAD7 mRNA expression [%]
1,790634 (kA*kG*kT*d[5mC]*dA*dG*dT*dT*dG*dG*dT*dT*dT*kG*kA*kG; antisense) [compound 790634],0
2,790635 (kG*kG*kA*d[5mC]*dA*dG*dT*d[5mC]*dA*dG*dT*dT*dG*kG*kT*kT; antisense) [compound 790635],40

# Same assay, conditions: SMAD7 mRNA, Hep3B cells, 10,000 nM antisense oligonucleotide, electroporation, approximately 24 hours, primer probe set RTS5062, relative to untreated control cells
row,Substance,% Inhibition [%]
1,790498 (k[5mC]*kT*k[5mC]*dT*dA*dG*dT*dT*d[5mC]*dG*d[5mC]*dA*dG*kA*kG*kT; antisense) [compound 790498],11
2,790508 (k[5mC]*kA*k[5mC]*d[5mC]*dA*d[5mC]*dG*d[5mC]*dA*d[5mC]*d[5mC]*dA*dG*kT*kG*kT; antisense) [compound 790508],0
3,790516 (kG*kT*kA*dA*d[5mC]*dT*dG*d[5mC]*dT*dG*d[5mC]*dG*dG*kT*kT*kG; antisense) [compound 790516],45
4,790519 (k[5mC]*kT*kG*dG*dA*dG*dT*d[5mC]*d[5mC]*dG*dG*dG*dT*kT*kG*kT; antisense) [compound 790519],8
5,790521 (kG*kG*k[5mC]*dT*dG*dT*dA*d[5mC]*dG*d[5mC]*d[5mC]*dT*dT*k[5mC]*kT*k[5mC]; antisense) [compound 790521],19
6,790529 (kA*kG*k[5mC]*dT*dG*dA*dT*d[5mC]*dT*dG*d[5mC]*dA*d[5mC]*kG*kG*kT; antisense) [compound 790529],65
7,790537 (kA*kG*k[5mC]*dA*dG*d[5mC]*dA*dA*dA*dG*dT*dA*dG*kT*kT*kT; antisense) [compound 790537],27
8,790604 (kT*kA*k[5mC]*dG*dA*dG*dT*dG*dT*dA*dT*dG*dA*kG*kT*kT; antisense) [compound 790604],30
9,790605 (kA*kT*k[5mC]*dA*dT*dA*d[5mC]*dG*dA*dG*dT*dG*dT*kA*kT*kG; antisense) [compound 790605],32
10,790609 (kG*kT*k[5mC]*dT*dA*dA*dA*d[5mC]*dA*dT*dG*d[5mC]*dT*k[5mC]*kA*kT; antisense) [compound 790609],40
11,790611 (kG*k[5mC]*kT*dT*dA*dT*dG*dT*dT*dA*dA*dA*dG*kT*k[5mC]*kT; antisense) [compound 790611],59
12,790612 (kT*kA*kA*dA*d[5mC]*d[5mC]*dT*dT*dT*dG*dT*dA*dG*kT*kT*kA; antisense) [compound 790612],64
13,790618 (kA*kG*k[5mC]*dA*d[5mC]*dT*dA*d[5mC]*dA*dA*dT*dG*d[5mC]*kT*kA*kA; antisense) [compound 790618],24
14,790637 (kA*k[5mC]*k[5mC]*dT*dA*dG*dT*dT*d[5mC]*dG*d[5mC]*dA*dG*kA*kG*kT; antisense) [compound 790637],0
15,790647 (k[5mC]*kG*k[5mC]*dG*dA*dG*dG*d[5mC]*dG*dG*dT*dG*dA*kT*kT*kG; antisense) [compound 790647],24
16,790652 (k[5mC]*kA*k[5mC]*d[5mC]*dA*dG*dT*dT*dG*dG*dT*dT*dT*kG*kA*kG; antisense) [compound 790652],25
17,790659 (kT*kG*k[5mC]*d[5mC]*dA*dG*dT*d[5mC]*dT*d[5mC]*dA*dA*dA*kT*kG*kG; antisense) [compound 790659],27
18,790674 (kT*kG*k[5mC]*dT*dA*d[5mC]*d[5mC]*dT*dA*dA*dT*dG*dT*k[5mC]*kA*kA; antisense) [compound 790674],40
19,790678 (kT*k[5mC]*k[5mC]*dT*dA*dT*dT*dG*dG*d[5mC]*dT*dG*dA*kT*k[5mC]*kT; antisense) [compound 790678],46
20,790679 (kA*kG*kG*dT*dT*dA*dA*dT*d[5mC]*dA*d[5mC]*dT*dT*k[5mC]*k[5mC]*kT; antisense) [compound 790679],13
